Test results from patent US11260083B2, “Compositions and methods for treating and preventing graft versus host disease” (The Regents of the University of Michigan, priority 2016, dated 2022).

Legend:
[1] = tested on: allogeneic (C57BL/6J→BALB/c) BMT recipients; experiment: Allo-BMT with Treg-depleted donor T cells (CD4+CD25− or DREG + DT) and butyrate; format: in vivo, mouse
Description: To further determine whether the salutary effects of local treatment with butyrate on GI GVHD were dependent on donor Treg cells, a BMT was performed utilizing the same HC mismatched BMT model in which C57BL/6J (H-2b) cells are transferred to Balb/c (H-2d) mice. T cell-depleted (TCD) bone marrow was transplanted and purified CD4+CD25− T cells from donors. Vehicle or butyrate was administered to the recipients daily for 1 week, then every other day thereafter as above. […]. J. Exp. Med. 204, 57-63 (2007); Lahl, K. & Sparwasser, T. In vivo depletion of FoxP3+ Tregs using the DEREG mouse model. […]. The Treg depleted T cells were then used as donor cells in the major MHC mismatch model used above. […] To further examine whether the local administration of butyrate impacted donor T cells directly, the HDAC and HAT enzymatic activity was determined in donor T cells harvested from the recipient animals. Both the HDAC activity or HAT activity in the donor T cells harvested from the recipient spleen were similar between butyrate and vehicle treated allogeneic animals.

IECs = experiment: qPCR of butyrate treated IECs in vitro; format: cell-based, mouse
Description: (§1) mRNA was isolated from samples using RNeasy kit following manufacturers instructions (Qiagen; Venlo, Netherlands). Using 1 μg of each mRNA template, cDNA was synthesized using SuperScript VILO (Invitrogen; Carlsbad, Calif.). qPCR primers were designed for murine targets. All primers were verified for the production of a single specific PCR product using a melting curve program and are shown below in Table 2.
It was hypothesized that butyrate would increase anti-apoptotic genes by modulation of histone acetylation. […] It was also determined if the restored acetylation of histone H4 observed in butyrate-treated allo-BMT recipients was responsible for increased BCL-B (Bcl2110) and JAM (F11r) expression via ChIP.

IEC junction = experiment: Transmission electron microscopy of intestines, ruthenium red; format: in vivo, mouse; settings: day 7 and day 21; allo-BMT recipients, intragastric butyrate
Text: Samples were stained as previously described (Soler, A. P. et al. Increased tight junctional permeability is associated with the development of colon cancer. Carcinogenesis 20, 1425-1431 (1999)). Briefly, the intestines from mice that received butyrate or vehicle treatment were harvested 7 days and 21 days following syngeneic and allogeneic BMT and flushed with 0.1 M Sorensen's phosphate buffer (pH 7.4) to remove luminal contents using a 20G needle. The intestines were next gently flushed with 0.1% ruthenium red (RR) containing 2.5% glutaraldehyde fixative in Sorensen's buffer and immediately placed in a dish containing the stain/fixative. Cross sections were immediately sliced (2 mm wide) from the duodenum, jejunum, and illium. The tissue was then rinsed three times with Sorensen's buffer, containing 0.1 percent RR and post-fixed for one hour in one percent osmium tetroxide in the same buffer containing RR. […] Images were recorded digitally using a Hamamatsu ORCA-HR digital camera system operated using AMT software (Advanced Microscopy Techniques Corp., Danvers, Mass.).
Intestinal permeability after allo-BMT was assessed by intragastric administration of FITC-dextran, a non-metabolized carbohydrate (Hanash, A. M. et al. Interleukin-22 protects intestinal stem cells from immune-mediated tissue damage and regulates sensitivity to graft versus host disease. Immunity 37, 339-350 (2012)).

[2] = tested on: CD326+ intestinal epithelial cells (IECs); experiment: Western blot / qPCR of CD326+ IECs isolated from BMT recipients; format: in vivo, mouse
Description: CD326+ purified IECs were harvested from animals that received syngeneic (BALB/c→BALB/c) or allogeneic (C57BL/6J→BALB/c) BMT. Whole cell lysates were next obtained and protein concentrations determined with Pierce BCA Protein Assay (Thermo Scientific). Equal amounts of protein (20 μg) were separated by SDS-PAGE gel electrophoresis (120V, 1.5 h) and subsequently transferred to polyvinylidene difluoride (PVDF) membrane using a Bio-Rad semi-dry transfer cell (Hercules, Calif.) (20V, lh). The following antibodies were used to analyze the membranes with dilutions in accordance with the manufacturers specification sheet: α-tubulin (Cell Signaling, clone 11H10), Acetyl histone H4 (Lys5/8/12/16) (EMD Millipore, clone 3HH-4C10), SLC5A8 (abcam), GPR43 (abcam), Occludin (abcam, clone EPR8208), JAM (abcam, clone EP1042Y), and Claudin 5 (abcam). Secondary anti-rabbit antibody conjugated to HRP (Jackson ImmunoResearch, Cat No. 111-035-003) was used to detect primary antibodies, where needed. Densitometric analysis was performed using ImageJ software (National Institutes of Health; Bethesda, […].).
as §1
It was next determined if the reduced amount of butyrate in IECs could be restored in vivo and further, whether this would have a functional impact on histone acetylation. In addition to utilizing transporters, butyrate can also diffuse across the mucosal barrier into IECs when present in high concentrations (Ganapathy, V., Thangaraju, M., Prasad, P. D., Martin, P. M. & Singh, N. Transporters and receptors for short-chain fatty acids as the molecular link between colonic bacteria and the host. Curr Opin Pharmacol 13, 869-874 (2013); Charney, A. N., Micic, L. & Egnor, R. W. Nonionic diffusion of short-chain fatty acids across rat colon. Am. J Physiol. 274, G518-24 (1998)). Therefore, it was hypothesized that administration of high amounts of butyrate locally would restore histone acetylation of IECs, in vivo. To test this, C57BL/6J cells were transferred to Balb/c mice and administered vehicle or butyrate via daily intragastric gavage.
To determine if these are involved in in vivo protection from GVHD, the expression of pro- and anti-apoptotic proteins as well as junctional proteins in IECs isolated 21 days following allo-BMT was determined. […] Overall, the results identify several ways in which butyrate can directly enhance epithelial cell function ranging from protection from irradiation and allo-T cell mediated apoptosis to proliferation and junctional protein expression, both in vitro and in vivo.

[3] = Treg depleted (DREG + DT) donor T cells
[4] = IECs following butyrate treatment
[5] = 21 days following allo-BMT, intragastric butyrate

CCCC(=O)[O-].[Na+] [butyrate, sodium butyrate]
GVHD ([1]; TCD bone marrow and purified CD4+CD25− donor T cells): Decreased GVHD
clinical GVHD [1, 3]: Significantly improved clinical GVHD
survival [1, 3]: improved survival
weight loss [1, 3]: less weight loss
mRNA expression of JAM (F11r) (IECs; [4]): significantly increased
mRNA expression of occludin (Ocln) (IECs; [4]): significantly increased
Bakl mRNA expression (IECs; butyrate treated IECs): significantly decreased
Bax mRNA expression (IECs; butyrate treated IECs): significantly decreased
transcripts of BCL-B (Bcl2110) (IECs; butyrate treated IECs): significantly increased
integrity of the IEC junction (TEM) (IEC junction): preserved
gene expression of junctional proteins in IECs ([2]; 21 days following allo-BMT, butyrate treated animals): similarly increased
BCL-B (Bcl2110) expression in IECs [2, 5]: increased
transcripts of Bak1 in IECs [2, 5]: significantly decreased
transcripts of Bax in IECs [2, 5]: significantly decreased
acetylation of histone H4 in IECs ([2]; C57BL/6J→Balb/c, daily intragastric butyrate for 21 days, vs untreated allo-BMT recipients): significantly restored
butyrate transporter SLC5A8 in IECs ([2]; daily intragastric gavage of butyrate): increase
protein amounts of Occludin, JAM and Claudin 5 (immunoblot) ([2]; recipients of allo-BMT treated with intragastric butyrate): increased junctional proteins
